Source: a melting point compilation (Tetko et al.; mined from patent text by program, amines drawn as free bases though some values may be those of a salt)

Compound | melting point [°C]
O=C(Nc1ncccn1)Nc1ccccc1C(F)(F)F | 224 to 225
O=C1N(Cc2ccccc2)C(O)C2CSC(c3ccccc3)N12 (mixture of isomers) | 151 to 153
Cc1cccc2cc(N3CCN(CCO)CC3)[nH]c(=O)c12 | 209 to 210
Cc1nc(-c2cccnc2)c2nc(-c3ccccc3)cc-2[nH]1 | 252 to 254
N#Cc1ccc(-c2c3c(cc4ccc(O)cc24)-c2ccc(O)cc2CO3)cc1 | > 250
CCCCCCCCCCCCCCCCCCN(CCCCCCCCCCCCCCCCCC)c1ccc([N+](=O)[O-])cc1[N+](=O)[O-] | 55.5 to 57.5
O=c1c2cccc3ncc(c(=O)n1CCCNS(=O)(=O)C(F)(F)F)n32 | 124 to 125
NC(=O)c1ccc(C(F)(F)F)nc1N | 227 to 229
O=C(Cn1c(-c2cccc(Cl)c2)nc2cccnc21)N1CCCCC1 | 140 to 150
Nc1ccc(N2CCN(Cc3ccccc3)CC2)nc1CS(=O)(=O)c1ccccc1 | 175 to 176
N#CC(=Cc1ccc(O)c(O)c1)C(N)=O | 247
COc1ccc(-c2cc(=O)n(Cc3ccccc3)nc2-c2ccc(OC)c(F)c2)cc1 | 137 to 138
Cc1nnc2n1-c1sc(CCc3ccc(-c4ccccc4)cc3)cc1C(c1ccccc1Cl)=NC2 | 163 to 165
COc1ccc(C2C(=O)N(c3ccccc3)N(c3ccccc3)C2=O)cc1 | 184 to 185
BrCc1cc(-c2ccccc2)no1 | 87
COc1cc2ncnc(N3CCC(C(C)(O)COS(=O)(=O)c4ccc(C)cc4)CC3)c2cc1OC (centres undefined) | 120 to 124
NC(=NO)c1ccc(Cn2ccc(OCc3ccccc3)c(Br)c2=O)cc1 | 210 to 212
CC(=O)N1c2ccccc2-c2c([N+](=O)[O-])cnn2C1C (centres undefined) | 149 to 150
CC(C)(O)Cn1cnc2c(N)nc3cc(Br)ccc3c21 | > 250
CCNS(=O)(=O)c1ccc(C2=C(c3ccccc3)C(=O)C(C)(C)O2)cc1Cl | 72 to 73
C=CCc1c(OC(C)=O)c2cccnc2n(-c2ccccc2)c1=O | 189 to 195
ClC(Cl)(Cl)c1nnc(-c2cccc3ccccc23)o1 | 90 to 91.5
O=[N+]([O-])c1ccc(NN=CCCc2ccc(F)cc2)cc1 | 125 to 127

Compound | melting point [°C]
O=C(O)c1nc2ccc(OCCCN3CCC(OC(c4ccccc4)c4ccccc4)CC3)nn2n1 | 173 to 177
Brc1ccc(N(Cc2ccccc2)Cc2ccccc2)cc1 | 123
CC(=O)Nc1ccc(C)cc1C(=O)c1ccc(F)cc1 | 140 to 145
O=[N+]([O-])c1sc(I)nc1I | 135
COc1ccc(CN2CCC(c3cn(Cc4ccoc4)c4cc(F)ccc34)CC2)cc1C(=O)O | 228 to 229
O=C1C(c2ccccc2)=C(c2ccccc2)C(=O)N1CCc1ccc(F)cc1 | 153 to 154
CCCCN(C1CS(=O)(=O)c2ccccc21)S(C)(=O)=O (centres undefined) | 171 to 173
CCCn1c(=O)[nH]c2cnc(-c3ccccc3)nc21 | 263 to 264
CON1C=Cc2ccccc2C1 | 113 to 114
C/C(=C(\C#N)C(N)=S)N1CCCN(c2ccccc2)CC1 | 151 to 153
O=C1C2CCCC(C(=O)N2Cc2ccccc2)N1Cc1ccccc1 | 201 to 202
CCn1cnc2c(Nc3cccc(F)c3)nc(NCCO)nc21 | 184
O=C1NC(N2CCCCCC2)=N/C1=C\c1c[nH]c2ncc(F)cc12 | 299
CNc1sc2c(c1C(=O)c1ccccc1)CCCC2 | 128 to 130
Cc1cc(OCc2ccccc2)c(C23CC4CC(CC(C4)C2)C3)cc1Br | 138 to 139
Cc1cc(N2C(=O)N(CCCCCCCCCSCCCC(F)(F)C(F)(F)F)C(C)(C)C2=O)ccc1NS(N)(=O)=O | 102 to 104
CC1=CC(c2ccc(C(F)(F)F)cc2)C2=C(CCCC2=O)N1 (centres undefined) | 116 to 118
CC1NC(=O)NN=C1c1ccc(Cl)cc1 (centres undefined) | 221 to 222
Cc1ccc(N2C(=O)C(O)=C(C(=O)c3ccc(OC(F)(F)F)cc3)C2c2ccc(Cn3cnnn3)cc2)nn1 (centres undefined) | > 300
O=C1CCC(N2Cc3c(OCc4cc5cc(N6CCCCC6)ccc5o4)cccc3C2=O)C(=O)N1 (centres undefined) | 242 to 244
CC12CCC(OC(=O)C(F)(F)F)CC1=CCC1=C2CCC2(C)C(=O)CCC12 (centres undefined) | 109 to 115
OCC(O)COc1ccc(Br)cc1 (centres undefined) | 69 to 75
CCCCN(CCCC)c1ccc(C=CC2=C(OC)C(=CC=CC3=C(C#N)C(=C(C#N)C#N)OC3(c3ccccc3)C(F)(F)F)CC(C)(C)C2)c(OC)c1 (centres undefined) | 153 to 158

Compound | melting point [°C]
Cc1cc(C(=O)N(C2CCCCC2)C2CCCC2)ccc1Cn1cnc2cccnc21 | 181 to 182
CC(=O)Nc1ccc(C#N)c(F)c1F | 175 to 177
O=[N+]([O-])c1cccc(-n2cnnc2C(F)(F)F)c1 | 142
Cc1ccc(CCN2C(=O)COc3ccc(C=C4SC(=S)NC4=O)cc32)cc1 | 267 to 269
CC[C@H](COC)n1cc(Br)nc(N2CCc3cc(Br)cc(Cl)c32)c1=O | 118
CN1CCC(C2(O)c3cc(Cl)ccc3CC2(C)C)CC1 (centres undefined) | 181 to 182
CCCOc1ccc(-c2cccc3nc(N)c4ncn(CC(C)C)c4c23)cc1 | 181 to 182
COc1cc2c(Nc3ccc(Cl)cc3F)c(C#N)cnc2cc1OCc1ccccc1 | 241 to 243
COc1ccc2c(c1)C(c1ccncc1)Nc1cc(Cl)ccc1O2 (centres undefined) | 186 to 188
O=C1c2cc(Cl)c(Cl)cc2C(O)N1CCCl (centres undefined) | 147 to 149
COc1cccc(C(=O)c2ccc(C(F)(F)F)cc2)c1 | 69
Cc1cc(-n2ccnc2)c2cccc(OCc3c(Cl)ccc(N(C)C(=O)CN4C(=O)c5ccccc5C4=O)c3Cl)c2n1 | 200 to 203
CCCCCCC1CCC2C(CCC3CC(=O)CCC32)C1 (centres undefined) | 49
CCOc1cc(Cc2cnc(N)nc2N)cc2c1OC(C)(C)C=C2c1ccc(OC)c(OC)c1 | 191 to 192
N#Cc1[nH]c(-c2ccc(Cl)cc2)c(S(=O)(=O)C(F)(F)F)c1Br | 170 to 185
CC(=O)c1ccc(OCCCN2CCC(c3noc4cc(F)ccc34)CC2)cc1 | 111 to 112
N#Cc1c(N2CCCCC2)cc(-c2ccc3ccc4cccc5ccc2c3c45)c2c1-c1ccccc1C2 | 114 to 116
CSc1nc(Cl)c(-c2ccccc2)c(NN)n1 | 134 to 135
O=C(O)COc1cccc(CSc2nc(-c3ccccc3)c(-c3ccccc3)[nH]2)c1 | 233 to 235
CN(C)C1(c2ccccc2Cl)C(=O)Nc2ccc(Cl)cc21 (centres undefined) | 169 to 172
O=C(O)C(CC(c1ccc(OCc2ccc3ccccc3n2)cc1)c1ccc(OCc2ccc3ccccc3n2)cc1)=NO | 104 to 108
O=C(O)Cn1cc(Cc2nc3c(F)c(F)cc(F)c3s2)c2ccc(N3CCOCC3)cc21 | 178 to 180
Cc1ccc(C(=O)c2c(Cl)cccc2Cl)cc1 | 109 to 112

Other lines, results leading:

melting point [°C] | Compound
107 to 109 | COc1cc(C)c(CC(=O)O)cc1C(C)C
54 to 56 | COC(=O)c1cnccc1NC(=O)C(C)CS (centres undefined)
77 to 80 | CCCc1c(OCC#CCCCC(=O)NCCCCc2cccnc2)ccc(C(C)=O)c1O
33 | CCCCCCCCCCCCCCCCOCC(CO)COC(C)=O (centres undefined)
85.5 to 88 | COC(=O)C(Oc1ccc(C(C)(C)C)cc1Cl)c1ccc(Oc2ccc(Cl)cc2)cc1 (centres undefined)
81 to 82 | CCOP(=O)(OCC)C(CCc1cc(C)nc2c(I)c(-c3ccccc3)nn12)P(=O)(OCC)OCC
30 to 34 | CCOC(=O)c1c(C)nc(NCCCN(C)C)c2nnn(CC)c12
146 to 149 | CC(=O)NC(C)=NC(=Nc1ccccc1)N1CCOCC1
132 to 134 | COC(=O)c1cc(-c2ccccc2)c(=O)n2c1-c1sccc1CN2C(C)=O
73.2 | CC(C)CC(C#N)(C#N)Cc1ccc(Cl)cc1
223 | O=C(Nc1ccccc1S(=O)(=O)N1CCCCC1)N[C@@H](Cc1ccc(NC(=O)c2c(Cl)cncc2Cl)cc1)C(=O)O
142 to 144 | CCSCCOC(=O)C1=C(C)NC(C)=C(C(=O)OCC=Cc2ccccc2)C1c1cccc([N+](=O)[O-])c1 (centres undefined)
107 to 109 | CC(C)[C@H](CCC(=O)O)NC(=O)OC(C)(C)C
135 | CC(=O)NC(n1cncn1)C(Cl)(Cl)CCl (centres undefined)
84 to 85 | COc1ccc(C(=O)C#CCO)cc1
174 to 176 | CCC1C(=O)N2C(C(=O)OCc3ccc([N+](=O)[O-])cc3)=C(CCNC(C)=O)CC12 (centres undefined)
160 to 161 | CNC(=O)C(=NO)c1ccccc1C
196 to 198 | CCNc1nc(SC)ncc1C=Nc1cc(OC)cc(OC)c1Cl
107 to 110 | CC(=O)OC(C)N1C(=O)/C(=C\c2[nH]c(C)cc2C)c2ccccc21 (centres undefined)
238 to 240 | CP(=O)(O)c1ccc(C(=O)O)cc1
96 to 97 | C=CCC1COC(CC)(CC(=O)O)c2[nH]c3c(CC)cccc3c21 (centres undefined)
57 to 60 | CCOC(=O)C(C(=O)C(C)C)C(CC(=O)C(C)C)c1ccc(F)cc1 (centres undefined)
135 to 136 | COCCOCCOCCOCCOc1cc(NC(=O)OC(C)(C)C)c(NC(=O)CC(=O)c2cccc(C#N)c2)cc1C#Cc1ccccc1
137 to 141 | Cc1c(Cc2ccc(C(C)C)cc2)c2c(c(C)c1NC(=O)CC(C)(C)C)C(c1ccccc1)CO2 (centres undefined)
165 to 166 | CCCC[C@]1(CC)CS(=O)(=O)c2cc(O)c(OC)cc2[C@@H](c2ccccc2)N1
222 to 224 | CC1=NC(NC(=O)Nc2cccc(C)c2)C(=O)N(CC(=O)N2CCN(CCO)CC2)c2c(C)cccc21 (centres undefined)
250 to 251 | Cc1ccc2c(=O)[nH]c(=O)n(C(C)C)c2c1
184 to 186 | COC(=O)/C=C/n1cnc2ccc(OC)cc2c1=O
100 to 101 | C[N+](C)(CCl)CCCC(=O)[O-]
72 to 73 | C=Cc1cnc(C)c(OC(C)=O)c1CSC(C)=O
